Source: article PMC11641365, “Evaluation of In Vitro Biological Activity of Flavanone/Chromanone Derivatives: Molecular Analysis of Anticancer Mechanisms in Colorectal Cancer” (International Journal of Molecular Sciences, 2024)

Tests used:
[1] = tested on: poly-ADP ribose polymerase (PARP); parameters: method as in PMID 35682740; settings: previous work of the authors; cited from earlier work
[2] = tested on: HCT 116; test: MTT cell viability assay; format: cell-based; settings: Homo sapiens, 24 h incubation with compound, mean ± SD of three experiments, read-out: Cytotoxic effect, IC50
Experimental: (§1) The cytotoxic activity of the 3-benzylideneflavanones, 3-benzylidenechromanones derivatives (compounds 1, 2, 3, 4, 5) and 5′-(3-methoxyphenyl)-2-phenyl-4′,5′-dihydro-4H-spiro[chromano-3,3′-pirazol]-4-one (compound 3a) was evaluated using the MTT assay (4,5-dimethylthiazol-2-yl)-2,5-diphenyltetrazoliumbromide), a colorimetric method that quantifies cell viability.
(§2) Cell viability was determined using the metabolic microplate spectrophotometric assay with Methylthiazolyl diphenyltetrazolium bromide (MTT) (Sigma-Aldrich; St. Louis, MO, USA). The MTT method belongs to metabolic tests for determining cell viability and consists of measuring the absorbance of a violet solution of formazan, a product of the reduction of a water-soluble yellow MTT by oxidoreductive enzymes (mainly mitochondrial succinate dehydrogenase) of living cells. The amount of the reaction product (water-insoluble formazan crystals) is proportional to the number of living and metabolically active cells in the sample. In the case of damaged or dead cells, formazan is formed in smaller amounts, or it is not formed.
(§3) The appropriate number of cells for a given cell line (6–8 × 10^3 cells/mL) were seeded onto colorless, sterile 96-well microplates (Nunc, Roskilde, Denmark) in the number appropriate for a given cell line. After 24 h of culture, various concentrations of the studied compounds (10^−7–10^−5 M) freshly prepared in DMSO (final concentration DMS < 0.1%) and diluted with complete culture medium were added and incubated in a CO2 incubator for 24 h. After this time, the medium was removed; the cell monolayer was washed twice with sterile PBS solution; and fresh culture medium was added to the microplate wells. After 48 h of cell culture, the MTT test was performed. A volume of 50 μL of tetrazolium salt solution (final concentration 0.05 mg/mL) was added to each microplate well. The microplate was placed for 3–4 h (depending on the cell line) in a CO2 incubator. After incubation, 100 μL of DMSO was added to the wells of the microplate to dissolve the purple formazan crystals formed in the living cell environment. The absorbance of the formazan solution, after gentle mixing, was read at a wavelength of λ = 580 nm and a reference wavelength of λ = 720 nm (Biotek Power Wave HT, Biotek Instruments, Winooski, VT, USA). The percentage of living cells was calculated by comparing the absorbance value of the tested samples with the absorbance value of the control (cells not treated with compounds). The absorbance of the control was taken as 100%.

[3] = tested on: LoVo; test: MTT cell viability assay; format: cell-based; settings: Homo sapiens, 24 h incubation with compound, mean ± SD of three experiments, read-out: Cytotoxic effect, IC50
Experimental: as §1, §2, §3

[4] = tested on: SW620; test: MTT cell viability assay; format: cell-based; settings: Homo sapiens, SW-620, 24 h incubation with compound, mean ± SD of three experiments, read-out: Cytotoxic effect, IC50
Experimental: as §1, §2, §3

[5] = tested on: Caco-2; test: MTT cell viability assay; format: cell-based, human; settings: Homo sapiens, Caco-2, 24 h, 24 h incubation with compound, mean ± SD of three experiments, read-out: Cytotoxic effect, IC50
Experimental: as §1, §2, §3

[6] = tested on: HT-29; test: MTT cell viability assay; format: cell-based, human; settings: Homo sapiens, HT-29, 24 h, HT-29, 24 h incubation with compound, mean ± SD of three experiments, read-out: Cytotoxic effect, IC50
Experimental: as §1, §2, §3

[7] = tested on: human colon cancer cell lines: HCT 116, SW620, LoVo, Caco-2, and HT-29; test: MTT cell viability assay, statements across the panel; format: cell-based; settings: Homo sapiens, range over the cancer cell lines, read-out: IC50 range against colon cancer cell lines
Experimental: as §1, with “viability. […] These IC50 values were subsequently used for all experiments investigating the anticancer activity of the flavanone/chromanone derivatives in this study.” for “viability.”
as §2
as §3, with “100%. […] Moreover, cisplatin (Sigma-Aldrich, St. Louis, MO, USA) was used as a reference compound, and identical incubation conditions were used as described above.” for “100%.”

IC50 [7] | SMILES | Interaction with PARP [1] | IC50 [2] | IC50 [3] | IC50 [4] | IC50 [5] | IC50 [6]
– | Cc1cccc(C2CC3(N=N2)C(=O)c2ccccc2OC3c2ccccc2)c1 (stereo not shown) [5′-(3-methylphenyl)-2-phenyl-4′,5′-dihydro-4H-spiro[chromano-3,3′-pirazol]-4-one] | effectively interacted with poly-ADP ribose polymerase (PARP), leading to its inactivation and degradation | – | – | – | – | –
70 to 210 µM | CCN(CC)c1ccc(/C=C2/C(=O)c3ccccc3OC2c2ccccc2)cc1 (stereo not shown) [Compound 2] | – | 192 ± 3.4 µM | 200 ± 6.6 µM | 211 ± 2.9 µM | > 250 µM | > 250 µM
70 to 210 µM | Cc1ccc(/C=C2/C(=O)c3ccccc3OC2c2ccccc2)cc1 (stereo not shown) [Compound 4] | – | 113 ± 5.1 µM | 178 ± 4.4 µM | > 250 µM | 156 ± 5.2 µM | 172 ± 4.2 µM
